Species on record: Rattus norvegicus
Assay: DrugMatrix - Regimen: Daily Repeat
Format: toxicity, organism-based, Sprague-Dawley
Set-up: regimen Daily Repeat, gender Male, age 6-8 weeks
Details: in vivo, po, route oral GAVAGE, vehicle .5 % CMC; for ABSOLUTE BASOPHIL / ABSOLUTE EOSINOPHIL / ABSOLUTE LYMPHOCYTE / ABSOLUTE MONOCYTE / ABSOLUTE SEGMENTED NEUTROPHIL / BASOPHIL / EOSINOPHIL / ERYTHROCYTE COUNT / HEMATOCRIT / HEMOGLOBIN / LEUKOCYTE COUNT / LYMPHOCYTE / MEAN CORPUSCULAR HEMOGLOBIN / MEAN CORPUSCULAR HEMOGLOBIN CONCENTRATION / MEAN CORPUSCULAR VOLUME / MONOCYTE / NEUTROPHIL / NUCLEATED RED BLOOD CELLS / PLATELET COUNT: tissue Blood; for ALANINE AMINOTRANSFERASE / ALBUMIN / ALKALINE PHOSPHATASE / ASPARTATE AMINOTRANSFERASE / BLOOD UREA NITROGEN / CARBON DIOXIDE / CHLORIDE / CHOLESTEROL / CREATINE PHOSPHOKINASE / CREATININE / GLUCOSE / LACTATE DEHYDROGENASE / LIPASE / PHOSPHORUS / POTASSIUM / SODIUM / TOTAL BILIRUBIN / TOTAL PROTEIN / URIC ACID: tissue Plasma
[1] = 2000 mg/kg, 120 h, dose level High, time 5 day
[2] = […], 72 h, dose 9.5 mg/Kg, dose level Low, time 3 day
[3] = […], 120 h, dose 9.5 mg/Kg, dose level Low, time 5 day

O=C1Nc2ccc(Cl)cc2C(c2ccccc2Cl)=NC1O (centres undefined) [LORAZEPAM]
ABSOLUTE BASOPHIL [1]: 0 CELLS/uL | ABSOLUTE EOSINOPHIL [1]: 0 CELLS/uL | ABSOLUTE LYMPHOCYTE [1]: 9298.5 CELLS/uL | ABSOLUTE MONOCYTE [1]: 148 CELLS/uL | ABSOLUTE SEGMENTED NEUTROPHIL [1]: 903.5 CELLS/uL | BASOPHIL [1]: 0% | EOSINOPHIL [1]: 0% | ERYTHROCYTE COUNT [1]: 6.25 x10E6/uL | HEMATOCRIT [1]: 36.95% | HEMOGLOBIN [1]: 14.95 G/DL | LEUKOCYTE COUNT [1]: 10.35 x10E3/uL | LYMPHOCYTE [1]: 89% | MEAN CORPUSCULAR HEMOGLOBIN [1]: 23.95 pg | MEAN CORPUSCULAR HEMOGLOBIN CONCENTRATION [1]: 40.5 G/DL | MEAN CORPUSCULAR VOLUME [1]: 59.1 fL | MONOCYTE [1]: 1.5% | NEUTROPHIL [1]: 9.5% | NUCLEATED RED BLOOD CELLS [1]: 0 /100WBC | PLATELET COUNT [1]: 1267 x10E3/uL | ALANINE AMINOTRANSFERASE [1]: 64.5 u/L | ALBUMIN [1]: 4.15 G/DL | ALKALINE PHOSPHATASE [1]: 283.5 u/L | ASPARTATE AMINOTRANSFERASE [1]: 92 u/L | BLOOD UREA NITROGEN [1]: 21.5 mg/dL | CARBON DIOXIDE [1]: 29.5 mmol/L | CHLORIDE [1]: 100.5 MEQ/L | CHOLESTEROL [1]: 76.5 mg/dL | CREATINE PHOSPHOKINASE [1]: 814 u/L | CREATININE [1]: 0.18 mg/dL | GLUCOSE [1]: 150.5 mg/dL | LACTATE DEHYDROGENASE [1]: 206 u/L | LIPASE [1]: 17.5 u/L | PHOSPHORUS [1]: 8.55 mg/dL | POTASSIUM [1]: 5.62 MEQ/L | SODIUM [1]: 145.4 MEQ/L | TOTAL BILIRUBIN [1]: 0.1 mg/dL | TOTAL PROTEIN [1]: 6.2 G/DL | URIC ACID [1]: 0.65 mg/dL | ABSOLUTE BASOPHIL [2]: 0 CELLS/uL | ABSOLUTE EOSINOPHIL [2]: 223.33 CELLS/uL | ABSOLUTE LYMPHOCYTE [2]: 14276.33 CELLS/uL | ABSOLUTE MONOCYTE [2]: 155.67 CELLS/uL | ABSOLUTE SEGMENTED NEUTROPHIL [2]: 1244.67 CELLS/uL | BASOPHIL [2]: 0% | EOSINOPHIL [2]: 1.33% | ERYTHROCYTE COUNT [2]: 5.67 x10E6/uL | HEMATOCRIT [2]: 36.03% | HEMOGLOBIN [2]: 13.93 G/DL | LEUKOCYTE COUNT [2]: 15.9 x10E3/uL | LYMPHOCYTE [2]: 89.67% | MEAN CORPUSCULAR HEMOGLOBIN [2]: 24.57 pg | MEAN CORPUSCULAR HEMOGLOBIN CONCENTRATION [2]: 38.67 G/DL | MEAN CORPUSCULAR VOLUME [2]: 63.57 fL | MONOCYTE [2]: 1% | NEUTROPHIL [2]: 8% | NUCLEATED RED BLOOD CELLS [2]: 0 /100WBC | PLATELET COUNT [2]: 1298 x10E3/uL | ALANINE AMINOTRANSFERASE [2]: 70 u/L | ALBUMIN [2]: 4.33 G/DL | ALKALINE PHOSPHATASE [2]: 451.67 u/L | ASPARTATE AMINOTRANSFERASE [2]: 99.67 u/L | BLOOD UREA NITROGEN [2]: 17.33 mg/dL | CARBON DIOXIDE [2]: 24 mmol/L | CHLORIDE [2]: 102.67 MEQ/L | CHOLESTEROL [2]: 65.67 mg/dL | CREATINE PHOSPHOKINASE [2]: 485.67 u/L | CREATININE [2]: 0.22 mg/dL | GLUCOSE [2]: 158 mg/dL | LACTATE DEHYDROGENASE [2]: 594 u/L | LIPASE [2]: 11 u/L | PHOSPHORUS [2]: 10.17 mg/dL | POTASSIUM [2]: 6.03 MEQ/L | SODIUM [2]: 142.63 MEQ/L | TOTAL BILIRUBIN [2]: 0.13 mg/dL | TOTAL PROTEIN [2]: 5.93 G/DL | URIC ACID [2]: 1.43 mg/dL | ABSOLUTE BASOPHIL [3]: 0 CELLS/uL | ABSOLUTE EOSINOPHIL [3]: 0 CELLS/uL | ABSOLUTE LYMPHOCYTE [3]: 12357 CELLS/uL | ABSOLUTE MONOCYTE [3]: 82 CELLS/uL | ABSOLUTE SEGMENTED NEUTROPHIL [3]: 461 CELLS/uL | BASOPHIL [3]: 0% | EOSINOPHIL [3]: 0% | ERYTHROCYTE COUNT [3]: 6.11 x10E6/uL | HEMATOCRIT [3]: 37.87% | HEMOGLOBIN [3]: 14.63 G/DL | LEUKOCYTE COUNT [3]: 12.9 x10E3/uL | LYMPHOCYTE [3]: 95.67% | MEAN CORPUSCULAR HEMOGLOBIN [3]: 23.97 pg | MEAN CORPUSCULAR HEMOGLOBIN CONCENTRATION [3]: 38.63 G/DL | MEAN CORPUSCULAR VOLUME [3]: 62.07 fL | MONOCYTE [3]: 0.67% | NEUTROPHIL [3]: 3.67% | NUCLEATED RED BLOOD CELLS [3]: 0 /100WBC | PLATELET COUNT [3]: 1313 x10E3/uL | ALANINE AMINOTRANSFERASE [3]: 62 u/L | ALBUMIN [3]: 4.13 G/DL | ALKALINE PHOSPHATASE [3]: 373.33 u/L | ASPARTATE AMINOTRANSFERASE [3]: 87.67 u/L | BLOOD UREA NITROGEN [3]: 12 mg/dL | CARBON DIOXIDE [3]: 25 mmol/L | CHLORIDE [3]: 104.33 MEQ/L | CHOLESTEROL [3]: 26.67 mg/dL | CREATINE PHOSPHOKINASE [3]: 550.33 u/L | CREATININE [3]: 0.15 mg/dL | GLUCOSE [3]: 136.33 mg/dL | LACTATE DEHYDROGENASE [3]: 527.67 u/L | LIPASE [3]: 9.33 u/L | PHOSPHORUS [3]: 10.97 mg/dL | POTASSIUM [3]: 6.04 MEQ/L | SODIUM [3]: 143.63 MEQ/L | TOTAL BILIRUBIN [3]: 0.13 mg/dL | TOTAL PROTEIN [3]: 5.8 G/DL | URIC ACID [3]: 1.67 mg/dL

— ChEMBL document CHEMBL3885881, “DrugMatrix”
